Here are results for 14 compounds from patent US20230102860A1, “METHOD FOR C[…] FUNGICIDE-RESISTANT SOYBEAN RUST FUNGI” (SUMITOMO CHEMICAL COMPANY, LIMITED, priority 2020, published 2023).

The assay relates to soybean rust fungus (Phakopsora pachyrhizi) having an amino acid substitution of F129L on mitochondrial cytochrome b protein. As to the kind of experiment: Comparative Test Example 1: soybean leaf disk test at 50 ppm or 12.5 ppm, lesion area (Table A, Table B). The format is in vivo. The protocol: A soybean leaf (cv; Kurosengoku) was punched out to 1 cm diameter to prepare a leaf disk. Each 1 mL of 1.2% agar medium was dispensed in 24 well microplate. A piece of the leaf disk was placed on each well. To a mixture of 0.5 μL of Sorpol (registered trademark) 1200KX, 4.5 μL of DMSO, and 5 μL of xylene was added 20 μL of a DMSO solution containing 10,000 ppm of the test compound. The resulting mixture was diluted with ion exchange water to prepare a spray solution containing a predetermined concentration of the test compound. The spray solution was sprayed in 10 μL per one leaf disk. After 1 day, an aqueous suspension of spores of soybean rust fungus (Phakopsora pachyrhizi) having an amino acid substitution of F129L on mitochondrial cytochrome b protein (1.0×10^5/mL) was inoculated onto the leaf disks. After the inoculation, the microplate was placed in a growth chamber (light on for 6 hours, light off for 18 hours, 23° C. temperature, 60% humidity). After 1 day, the leaf disks were air-dried to disappear water droplets on the surface of the leaf disk, and the microplate was placed again in the growth chamber for 10 to 14 days. Thereafter, a lesion area of soybean rust disease was assessed. […] Here the untreated means that the spray solution containing the test compound was not sprayed onto the leaf disk.
The test was conducted by using as a test compound the present compound 3, 5, 11, 59, 200, 202, 207, 214, 222, 294 or 391, or azoxystrobin, dimoxystrobin or metominostrobin, at the predetermined concentration of 50 ppm or 12.5 ppm according to a method described in the Test Example 1. The results thereof are indicated in [Table A] and [Table B].

Structures are written as SMILES.

As to `CO/C=C(/C(=O)OC)c1ccccc1/C=C/C1CC1C` (stereo not shown), the “Lesion Area at each concentration (%)” value amounted to 0% (12.5 ppm) and 0% (50 ppm).

With `CO/C=C(/C(=O)OC)c1ccccc1/C=C/C1CC1(F)F` (stereo not shown), the “Lesion Area at each concentration (%)” value (12.5 ppm) is given as 0% and the “Lesion Area at each concentration (%)” value (50 ppm) came to 0%.

As to `CCc1ccc(/C(=C\OC)C(=O)OC)c(/C=C/C2CC2)c1`, the “Lesion Area at each concentration (%)” value by setting is: (12.5 ppm) 0%; (50 ppm) 0%.

Turning to `CO/C=C(/C(=O)OC)c1ccc(Cl)cc1/C=C/C1CC1(C)C` (stereo not shown), the “Lesion Area at each concentration (%)” value reads like this: (12.5 ppm) 0%; (50 ppm) 0%.

`CCCCC#Cc1cc(Cl)ccc1/C(=C\OC)C(=O)OC`: the “Lesion Area at each concentration (%)” value runs as follows: (12.5 ppm) 0%; (50 ppm) 0%.

As to `CO/C=C(/C(=O)OC)c1ccc(Cl)cc1C#CCC(C)C`, the “Lesion Area at each concentration (%)” value (12.5 ppm) was determined as 0% and the “Lesion Area at each concentration (%)” value (50 ppm) is reported as 0%.

As for `CO/C=C(/C(=O)OC)c1ccc(OC)cc1C#CCC(C)C`, the “Lesion Area at each concentration (%)” value (12.5 ppm) amounted to 0% and the “Lesion Area at each concentration (%)” value (50 ppm) is given as 0%.

Take `CO/C=C(/C(=O)OC)c1ccc(Cl)cc1C#CCC1CCCC1`: the “Lesion Area at each concentration (%)” value runs as follows: (12.5 ppm) 0%; (50 ppm) 0%.

As for `CO/C=C(/C(=O)OC)c1ccccc1COc1ccn(-c2ccc(Cl)cc2)n1`, the “Lesion Area at each concentration (%)” value (12.5 ppm) is on record as 10% and the “Lesion Area at each concentration (%)” value (50 ppm) is recorded as 0%.

As for `CNC(=O)/C(=N/OC)c1ccccc1COc1ccn(-c2ccc(Cl)cc2)n1`, the “Lesion Area at each concentration (%)” value (12.5 ppm) is listed as 10% and the “Lesion Area at each concentration (%)” value (50 ppm) is given as 0%.

With `CO/C=C(/C(=O)OC)c1c(C)cccc1CO/N=C(\C)c1ccc(Cl)cc1`, the “Lesion Area at each concentration (%)” value (12.5 ppm) came to 0% and the “Lesion Area at each concentration (%)” value (50 ppm) was found to be 0%.

Take `CO/C=C(/C(=O)OC)c1ccccc1Oc1cc(Oc2ccccc2C#N)ncn1`: the “Lesion Area at each concentration (%)” value (12.5 ppm) is listed as 100% and the “Lesion Area at each concentration (%)” value (50 ppm) is 100%.

As for `CNC(=O)/C(=N/OC)c1ccccc1COc1cc(C)ccc1C`, the “Lesion Area at each concentration (%)” value was found to be 100% (12.5 ppm) and 100% (50 ppm).

In the case of `CNC(=O)/C(=N/OC)c1ccccc1Oc1ccccc1`, the “Lesion Area at each concentration (%)” value is recorded as 100% (12.5 ppm) and 100% (50 ppm).
